The results in this text go back to US10196391B2 (Hoffmann-La Roche Inc., priority 2014, dated 2019).

The first assay deals with HBsAg. In words: HBsAg assay (CLIA) in HepG2.2.15 cells. It counts as cell-based, HBV. Particulars: HepG2.2.15 cells, secreted HBsAg, CLIA; read-out: IC50 (HBsAg assay). In a few lines: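 HepG2.2.15 cells (1.5×10^4/well, duplicate) treated with three-fold compound dilutions, 1% DMSO final, DMSO as no-drug control. Secreted HBsAg in supernatant quantified semi-quantitatively by chemiluminescence immunoassay; IC50 is concentration reducing HBsAg 50% versus no-drug control.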
For “2,3-difluoro-5-[2-(2-pyridyl)-7,8-dihydro-5H-pyrido[4,3-d]pyrimidin-6-yl]phenol [Example 18]”, the half-maximal inhibitory concentration (IC50) is 22 µM.

The assay is the same for the next values; noted with them: Hepatitis B virus, HepG2.2.15, read-out: IC50 (HBsAg assay).
Turning to `CS(=O)(=O)c1ccc(N2CCc3nc(-c4ccccn4)nc(O)c3C2)cc1` [Example 80, 6-(4-methylsulfonylphenyl)-2-(2-pyridyl)-3,5,7,8-tetrahydropyrido-[4,3-d]pyrimidin-4-one], the IC50 came to 5.94 µM.
Still for that read-out and setting: the same measure for `COc1cc(N2CCc3nc(-c4ncccn4)ncc3C2)cc(C(F)(F)F)c1` [Example 100, 6-[3-methoxy-5-(trifluoromethyl)phenyl]-2-pyrimidin-2-yl-7,8-dihydro-5H-pyrido[4,3-d]pyrimidine]: 0.278 µM; for `COc1ccc(N2CCc3nc(-c4ccccn4)ncc3C2)cc1` [Example 50, 6-(4-methoxyphenyl)-2-(2-pyridyl)-7,8-dihydro-5H-pyrido[4,3-d]pyrimidine]: 21.9 µM.
Still for that read-out and setting: the same measure for `Fc1cc(N2CCc3nc(-c4ncccn4)ncc3C2)cc(F)n1` [Example 109, 6-(2,6-difluoro-4-pyridyl)-2-pyrimidin-2-yl-7,8-dihydro-5H-pyrido[4,3-d]pyrimidine]: 4.09 µM; for `c1ccc(-c2ncc3c(n2)CCN(c2ncccn2)C3)nc1` [Example 37, 2-(2-pyridyl)-6-pyrimidin-2-yl-7,8-dihydro-5H-pyrido[4,3-d]pyrimidine]: 4.45 µM; for `COc1cc(Cl)nc(N2CCc3nc(-c4ncccn4)ncc3C2)c1` [Example 108, 6-(6-chloro-4-methoxy-2-pyridyl)-2-pyrimidin-2-yl-7,8-dihydro-5H-pyrido[4,3-d]pyrimidine]: 0.263 µM.
The same measure, in the same setting: the same measure for `Fc1cc(F)nc(N2CCc3nc(-c4ncccn4)ncc3C2)c1` [Example 110, 6-(4,6-difluoro-2-pyridyl)-2-pyrimidin-2-yl-7,8-dihydro-5H-pyrido[4,3-d]pyrimidine]: 1.44 µM.
Consider `COc1cc([N+](=O)[O-])ccc1N1CCc2nc(-c3ccccn3)ncc2C1` [Example 34, 6-(2-methoxy-4-nitro-phenyl)-2-(2-pyridyl)-7,8-dihydro-5H-pyrido[4,3-d]pyrimidine], for which the half-maximal inhibitory concentration (IC50) turned out to be 0.874 µM.

The next assay has as its system HBV DNA. In words: HBV DNA assay (real-time qPCR) in HepG2.2.15 cells. It counts as cell-based. The settings on record: Hepatitis B virus, 144 h, extracellular HBV DNA, 6 days, read-out: IC50 (Anti HBV DNA production activity). The method, then:
HepG2.2.15 cells (Acs et al. Proc Natl Acad Sci USA, 84, (1987), 4641-4), a constitutively HBV-expressing cell line were cultured in DMEM+Glutamax-I medium (Invitrogen, Carlsbad, Calif., USA), supplemented with 10% fetal bovine serum (Invitrogen) and G418 (Invitrogen) at a final concentration of 200 mg/L and maintained in 5% CO2 at 37° C.
The assay employs real-time qPCR (TaqMan) to directly measure extracellular HBV DNA copy number. HepG2.2.15 cells were plated in 96-well microtiter plates. Only the interior wells were utilized to reduce “edge effects” observed during cell culture, the exterior wells were filled with complete medium to help minimize sample evaporation. On the following day, the HepG2.2.15 cells were washed and the medium was replaced with complete medium containing various concentrations of a test compound in triplicate. 3TC was used as the positive control, while media alone was added to cells as a negative control (virus control, VC). Three days later, the culture medium was replaced with fresh medium containing the appropriately diluted drug. Six days following the initial administration of the test compound, the cell culture supernatant was collected, treated with pronase and then used in a real-time qPCR/TaqMan assay to determine HBV DNA copy numbers. Antiviral activity was calculated from the reduction in HBV DNA levels (IC50). […]
As for `CS(=O)(=O)c1ccc(N2CCc3nc(-c4ccccn4)nc(O)c3C2)cc1` [Example 80, 6-(4-methylsulfonylphenyl)-2-(2-pyridyl)-3,5,7,8-tetrahydropyrido-[4,3-d]pyrimidin-4-one], the half-inhibitory concentration (IC50) amounted to 0.16 µM.
